Laboratory results reported in ChEMBL document CHEMBL5038623, “Synthesis and bioactivities of new N-terminal dipeptide mimetics with aromatic amide moiety: Broad-spectrum antibacterial activity and high antineoplastic activity” (Eur J Med Chem, 2022).
≈ marks a conversion by molar mass, not a printed value. Calls of active or inactive are those of the source. The rule behind the calls is not given here.

Assays:
Escherichia coli [1] = experiment: Antibacterial activity against Escherichia coli ATCC25922 assessed as zone of inhibition incubated for 12 hrs by disc diffusion method; format: functional, ATCC 25922
Klebsiella pneumoniae = experiment: Antibacterial activity against Klebsiella pneumoniae ATCC 700603 assessed as reduction in microbial growth after 24 hrs by broth dilution method; format: functional
[2] = Hemolytic activity in rabbit RBC measured after 1 hrs by microplate reader assay; format: toxicity, cell-based, Oryctolagus cuniculus, Erythrocyte; details: rabbit red blood cells (RBC)
Escherichia coli [3] = experiment: Antibacterial activity against Escherichia coli ATCC25922 assessed as reduction in microbial growth after 24 hrs by broth dilution method; format: functional; details: ATCC 25922
[4] = Selectivity index, HC50 for hemolytic activity in rabbit RBC to MIC for antibacterial activity against methicillin-resistant Staphylococcus aureus ATCC 33591; format: toxicity; details: rabbit red blood cells (RBC), read-out: Selectivity Index
Staphylococcus aureus [5] = experiment: Antibacterial activity against methicillin-resistant Staphylococcus aureus ATCC 33591 assessed as MIC incubated for 12 hrs
Staphylococcus aureus [6] = experiment: Antibacterial activity against Staphylococcus aureus ATCC 6538 assessed as zone of inhibition incubated for 12 hrs by disc diffusion method; format: functional
Staphylococcus aureus [7] = experiment: Antibacterial activity against Staphylococcus aureus ATCC 6538 assessed as reduction in microbial growth after 24 hrs by broth dilution method; format: functional
L929 [8] = experiment: Cytotoxicity against mouse L929 cells assessed as reduction in cell viability at 1000 ug/ml incubated for 24 hrs by MTT assay; format: toxicity, cell-based; details: l929, 24 h, at 1000 µg/mL
Escherichia coli [9] = experiment: Bactericidal activity against Escherichia coli assessed as changes in cell morphology incubated for 3 hrs by SEM analysis; format: functional, organism-based
Escherichia coli [10] = experiment: Antibiofilm activity against Escherichia coli at 40 ug/ml after 72 hrs by crystal violet staining based assay; format: functional; details: dose 40 µg/ml
Staphylococcus aureus [11] = experiment: Antibiofilm activity against Staphylococcus aureus at 160 ug/ml after 24 hrs by crystal violet staining based assay; format: functional; details: dose 160 µg/ml
SGC-7901 [12] = experiment: Induction of apoptosis in human SGC-7901 cells assessed as apoptosis rate at 5 ug/ml incubated for 24 hrs by annexin V-FITC/propidium iodide staining based flow cytometric analysis (reference value: 7.44%); format: functional; details: dose 5 µg/ml
Staphylococcus aureus [13] = experiment: Antibacterial activity against Staphylococcus aureus incubated with 50% plasma (unknown origin) measured after 8 hrs; format: functional
Staphylococcus aureus [14] = experiment: Antibacterial activity against Staphylococcus aureus assessed as fold change of bacterial growth inhibition incubated with 50% blood (unknown origin); format: functional
Staphylococcus aureus [15] = experiment: Antibiofilm activity against Staphylococcus aureus at 320 ug/ml after 24 hrs by crystal violet staining based assay; format: functional; details: dose 320 µg/ml
L929 [16] = experiment: Cytotoxicity against mouse L929 cells assessed as reduction in cell viability at 15.6 ug/ml incubated for 24 hrs by MTT assay; format: toxicity, cell-based; details: l929, 24 h, dose 15.6 µg/ml
Escherichia coli [17] = experiment: Antibiofilm activity against Escherichia coli at 80 ug/ml after 72 hrs by crystal violet staining based assay; format: functional; details: dose 80 µg/ml
Escherichia coli [18] = experiment: Bactericidal activity against Escherichia coli measured after 7 hrs by time-kill dilution assay relative to control; format: functional, organism-based
Staphylococcus aureus [19] = experiment: Antibacterial activity against Staphylococcus aureus incubated with 50% plasma (unknown origin) measured after 4 hrs; format: functional, organism-based
Escherichia coli [20] = experiment: Bactericidal activity against Escherichia coli at 2MIC measured after 1 hrs by time-kill dilution assay relative to control; format: functional
SGC-7901 [21] = experiment: Cytotoxicity against human SGC-7901 cells assessed as reduction in cell viability after 24 hrs by MTT assay; format: functional, cell-based; details: SGC-7901, 24 h
Staphylococcus aureus [22] = experiment: Antibacterial activity against Staphylococcus aureus assessed as bacterial growth inhibition incubated with 50% serum (unknown origin); format: functional, organism-based
Staphylococcus aureus [23] = experiment: Antibacterial activity against Staphylococcus aureus assessed as fold change of bacterial growth inhibition incubated with 50% plasma (unknown origin); format: functional
Escherichia coli [24] = experiment: Antibacterial activity against Escherichia coli assessed as fold change of bacterial growth inhibition incubated with 50% blood (unknown origin); format: functional
Staphylococcus aureus [25] = experiment: Antibacterial activity against Staphylococcus aureus at sub-MIC measured treated over 16 serial passages after 24 hrs by resistance development assay; format: functional, organism-based
Staphylococcus aureus [26] = experiment: Antibiofilm activity against Staphylococcus aureus at 80 ug/ml after 24 hrs by crystal violet staining based assay; format: functional; details: dose 80 µg/ml
L929 [27] = experiment: Cytotoxicity against mouse L929 cells assessed as reduction in cell viability at 31.5 to 125 ug/ml incubated for 24 hrs by MTT assay; format: toxicity, cell-based; details: l929, 24 h, at 31.5 to 125 µg/mL, dose 31.5-125 µg/ml
Escherichia coli [28] = experiment: Antibacterial activity against Escherichia coli assessed as bacterial growth inhibition incubated with 50% serum (unknown origin); format: functional, organism-based
Escherichia coli [29] = experiment: Bactericidal activity against Escherichia coli at 4MIC measured after 1 hrs by time-kill dilution assay relative to control; format: functional
Staphylococcus aureus [30] = experiment: Bactericidal activity against Staphylococcus aureus assessed as changes in cell morphology incubated for 3 hrs by SEM analysis; format: functional, organism-based
Escherichia coli [31] = experiment: Antibiofilm activity against Escherichia coli at 20 ug/ml after 72 hrs by crystal violet staining based assay; format: functional; details: dose 20 µg/ml
Escherichia coli [32] = experiment: Antibacterial activity against Escherichia coli assessed as fold change of bacterial growth inhibition incubated with 50% plasma (unknown origin); format: functional
Escherichia coli [33] = experiment: Antibiofilm activity against Escherichia coli at 320 ug/ml after 72 hrs by crystal violet staining based assay; format: functional; details: dose 320 µg/ml
SGC-7901 [34] = experiment: Induction of apoptosis in human SGC-7901 cells assessed as apoptosis rate level at 50 ug/ml incubated for 24 hrs by annexin V-FITC/propidium iodide staining based flow cytometric analysis (reference value: 7.44%); format: functional; details: dose 50 µg/ml
SGC-7901 [35] = experiment: Induction of apoptosis in human SGC-7901 cells assessed as apoptosis rate at 25 ug/ml incubated for 24 hrs by annexin V-FITC/propidium iodide staining based flow cytometric analysis (reference value: 7.44%); format: functional; details: dose 25 µg/ml
Escherichia coli [36] = experiment: Antibacterial activity against Escherichia coli at sub-MIC treated over 16 serial passages measured after 24 hrs by resistance development assay; format: functional, organism-based
Escherichia coli [37] = experiment: Antibiofilm activity against Escherichia coli at 160 ug/ml after 72 hrs by crystal violet staining based assay; format: functional; details: dose 160 µg/ml

C#Cc1cccc(NC(=O)[C@@H](N)C(C)C)c1
diameter of the inhibition zone (DIZ) (Escherichia coli [1]): 15.4 mm | MIC (Klebsiella pneumoniae): 20 µg/mL | HC50 at 1 h [2]: 836 µg/mL | MIC (Escherichia coli [3]): 10 µg/mL | selectivity ratio [4]: 83.6 | MIC (Staphylococcus aureus [5]): 20 µg/mL (≈ 92.5 µM) | diameter of the inhibition zone (DIZ) (Staphylococcus aureus [6]): 15.7 mm | MIC (Staphylococcus aureus [7]): 10 µg/mL

C#Cc1ccc(NC(=O)[C@@H](N)C(C)C)cc1
diameter of the inhibition zone (DIZ) (Escherichia coli [1]): 20 mm | Activity (L929 [8]): 70% | Activity (Escherichia coli [9]): Active | MIC (Klebsiella pneumoniae): 5 µg/mL | Activity (Escherichia coli [10]): 66.2% | Activity (Staphylococcus aureus [11]): 85.4% | Activity (SGC-7901 [12]): 9.71% | fold change (FC) (Staphylococcus aureus [13]): 2 | fold change (FC) (Staphylococcus aureus [14]): 4 | HC50 at 1 h [2]: 891 µg/mL | Activity (Staphylococcus aureus [15]): 91% | Activity (L929 [16]): Non-Toxic | Activity (Escherichia coli [17]): 77.3% | Activity (Escherichia coli [18]): Active | Activity (Staphylococcus aureus [19]): Active | Activity (Escherichia coli [20]): 62.2% | IC50 (SGC-7901 [21]): 70.8 µg/mL (≈ 327 µM) | Activity (Staphylococcus aureus [22]): inactive | fold change (FC) (Staphylococcus aureus [23]): 2 | fold change (FC) (Escherichia coli [24]): 4 | Activity (Staphylococcus aureus [25]): inactive | MIC (Escherichia coli [3]): 5 µg/mL | Activity (Staphylococcus aureus [26]): 77.5% | Activity (L929 [27]): 85% | selectivity ratio [4]: 356 | MIC (Staphylococcus aureus [5]): 5 µg/mL (≈ 23.1 µM) | Activity (Escherichia coli [28]): inactive | Activity (Escherichia coli [29]): 0.4% | diameter of the inhibition zone (DIZ) (Staphylococcus aureus [6]): 21.8 mm | MIC (Staphylococcus aureus [7]): 2.5 µg/mL | Activity (Staphylococcus aureus [30]): Active | Activity (Escherichia coli [31]): 47.5% | fold change (FC) (Escherichia coli [32]): 2 | Activity (Escherichia coli [33]): 93.5% | Activity (SGC-7901 [34]): 50.36% | Activity (SGC-7901 [35]): 11.46% | Activity (Escherichia coli [36]): inactive | Activity (Escherichia coli [37]): 81.5%

C#Cc1ccc(NC(=O)[C@@H](N)C(C)CC)cc1 (stereo partly drawn)
diameter of the inhibition zone (DIZ) (Escherichia coli [1]): 12.3 mm | MIC (Klebsiella pneumoniae): 39 µg/mL | HC50 at 1 h [2]: 813 µg/mL | MIC (Escherichia coli [3]): 20 µg/mL | selectivity ratio [4]: 20.8 | MIC (Staphylococcus aureus [5]): 39 µg/mL (≈ 169 µM) | diameter of the inhibition zone (DIZ) (Staphylococcus aureus [6]): 12 mm | MIC (Staphylococcus aureus [7]): 39 µg/mL

Cc1ccc(NC(=O)[C@@H](N)C(C)C)cc1
MIC (Klebsiella pneumoniae): > 1250 µg/mL | MIC (Escherichia coli [3]): > 1250 µg/mL | MIC (Staphylococcus aureus [7]): > 1250 µg/mL

C[C@H]1COc2c(N3CCN(C)CC3)c(F)cc3c(=O)c(C(=O)O)cn1c23.C[C@H]1COc2c(N3CCN(C)CC3)c(F)cc3c(=O)c(C(=O)O)cn1c23.O [LEVOFLOXACIN]
MIC (Klebsiella pneumoniae): < 0.63 µg/mL | MIC (Escherichia coli [3]): 2.5 µg/mL | MIC (Staphylococcus aureus [5]): 1.25 µg/mL | MIC (Staphylococcus aureus [7]): 1.25 µg/mL

C#Cc1cccc(NC(=O)[C@@H](N)Cc2ccccc2)c1
diameter of the inhibition zone (DIZ) (Escherichia coli [1]): 10 mm | MIC (Klebsiella pneumoniae): 39 µg/mL | HC50 at 1 h [2]: > 1250 µg/mL | MIC (Escherichia coli [3]): 39 µg/mL | selectivity ratio [4]: > 62.5 | MIC (Staphylococcus aureus [5]): 20 µg/mL (≈ 75.7 µM) | diameter of the inhibition zone (DIZ) (Staphylococcus aureus [6]): 10.2 mm | MIC (Staphylococcus aureus [7]): 20 µg/mL

CC(C)[C@H](N)C(=O)Nc1ccc(I)cc1
MIC (Klebsiella pneumoniae): 39 µg/mL | HC50 at 1 h [2]: 794 µg/mL | MIC (Escherichia coli [3]): 39 µg/mL | selectivity ratio [4]: 39.7 | MIC (Staphylococcus aureus [5]): 20 µg/mL (≈ 62.9 µM) | diameter of the inhibition zone (DIZ) (Staphylococcus aureus [6]): 17.6 mm | MIC (Staphylococcus aureus [7]): 20 µg/mL

CN[C@H](CC(C)C)C(=O)N[C@H]1C(=O)N[C@@H](CC(N)=O)C(=O)N[C@H]2C(=O)N[C@H]3C(=O)N[C@H](C(=O)N[C@H](C(=O)O)c4cc(O)cc(O)c4-c4cc3ccc4O)[C@H](O)c3ccc(c(Cl)c3)Oc3cc2cc(c3O[C@@H]2O[C@H](CO)[C@@H](O)[C@H](O)[C@H]2O[C@H]2C[C@](C)(N)[C@H](O)[C@H](C)O2)Oc2ccc(cc2Cl)[C@H]1O [VANCOMYCIN]
MIC (Klebsiella pneumoniae): 1250 µg/mL | MIC (Escherichia coli [3]): 156 µg/mL | MIC (Staphylococcus aureus [5]): 1.25 µg/mL (≈ 0.863 µM) | MIC (Staphylococcus aureus [7]): < 0.63 µg/mL

CC(C)[C@H](N)C(=O)Nc1ccc(Br)cc1
diameter of the inhibition zone (DIZ) (Escherichia coli [1]): 11.8 mm | MIC (Klebsiella pneumoniae): 78 µg/mL | HC50 at 1 h [2]: > 1250 µg/mL | MIC (Escherichia coli [3]): 39 µg/mL | selectivity ratio [4]: > 32 | MIC (Staphylococcus aureus [5]): 78 µg/mL (≈ 288 µM) | diameter of the inhibition zone (DIZ) (Staphylococcus aureus [6]): 11.8 mm | MIC (Staphylococcus aureus [7]): 39 µg/mL
